Assay results: patent publication US8415469B2, “Compounds and methods for kinase modulation, and indications therefor” (Plexxikon Inc., priority 2005, dated 2013)

Tests used:
Type in all cases: biochemical
c-Raf-1 = target: T1, c-Raf-1 (Homo sapiens, UniProt P04049); experiment: AlphaScreen kinase assay, c-Raf-1; conditions: read-out: IC50, activity toward kinase c-Raf-1
T1 construct: purchased Upstate Biotechnology

Fak = target: T2, Fak (Homo sapiens, UniProt Q05397); experiment: AlphaScreen kinase assay, Fak; conditions: read-out: IC50, activity toward kinase Fak
T2 construct: P1358.pFastBacHtb FAK S411-Q686-X; His6 with pFastBacHTb leader (TEV site) (N); made in house; host or cells: Sf9 (baculovirus)

Src = target: T3, Src (Homo sapiens, UniProt P12931); experiment: AlphaScreen kinase assay, Src; conditions: read-out: IC50, activity toward kinase Src
T3 construct: P1144. pET-N6 BI-PTP SRC V86-L536-X; made in house

Stk6 = target: T4, Stk6 (Homo sapiens, UniProt O14965); experiment: Z'-Lyte FRET kinase assay (Invitrogen), Stk6; conditions: read-out: IC50, activity toward kinase Stk6
T4 construct: purchased Invitrogen (Carlsbad, Calif.), screening service
T4 sequence (O14965 1-403): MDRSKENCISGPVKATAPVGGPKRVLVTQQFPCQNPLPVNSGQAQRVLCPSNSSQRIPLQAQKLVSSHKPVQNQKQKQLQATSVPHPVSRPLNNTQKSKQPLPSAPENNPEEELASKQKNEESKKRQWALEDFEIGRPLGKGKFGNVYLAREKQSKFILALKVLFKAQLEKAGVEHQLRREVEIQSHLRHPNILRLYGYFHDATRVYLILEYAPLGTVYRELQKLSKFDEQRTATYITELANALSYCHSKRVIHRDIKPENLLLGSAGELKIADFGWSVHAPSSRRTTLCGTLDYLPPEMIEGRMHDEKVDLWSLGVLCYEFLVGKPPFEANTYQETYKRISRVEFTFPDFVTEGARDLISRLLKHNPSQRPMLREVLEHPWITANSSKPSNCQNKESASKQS

Flt1 = target: T5, Flt1 (Homo sapiens, UniProt P17948); experiment: AlphaScreen kinase assay, Flt1; conditions: read-out: IC50, activity toward kinase Flt1
T5 construct: P1826.pETN6 BI-PTP FLT1 M799-D1165-X WT; His6 (N); made in house; host or cells: E. coli (PTP1B co-expressed)
T5 sequence (P17948 with tags, fused parts or gaps): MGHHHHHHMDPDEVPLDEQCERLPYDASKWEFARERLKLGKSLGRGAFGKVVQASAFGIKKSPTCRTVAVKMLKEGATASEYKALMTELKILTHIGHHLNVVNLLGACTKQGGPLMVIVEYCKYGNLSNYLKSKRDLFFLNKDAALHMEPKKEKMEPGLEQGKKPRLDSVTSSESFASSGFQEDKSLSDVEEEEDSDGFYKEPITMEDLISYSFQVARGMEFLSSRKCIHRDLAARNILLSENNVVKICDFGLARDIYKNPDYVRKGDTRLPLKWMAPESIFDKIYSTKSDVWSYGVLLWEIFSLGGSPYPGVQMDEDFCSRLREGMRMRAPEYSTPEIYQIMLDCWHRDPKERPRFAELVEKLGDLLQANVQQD

Jnk3 = target: T6, Jnk3 (Homo sapiens, UniProt P53779); experiment: AlphaScreen kinase assay, Jnk3; conditions: read-out: IC50, activity toward kinase Jnk3
T6 construct: purchased Upstate Biotechnology

Measured: IC50

T2 sequence (Q05397 411-686): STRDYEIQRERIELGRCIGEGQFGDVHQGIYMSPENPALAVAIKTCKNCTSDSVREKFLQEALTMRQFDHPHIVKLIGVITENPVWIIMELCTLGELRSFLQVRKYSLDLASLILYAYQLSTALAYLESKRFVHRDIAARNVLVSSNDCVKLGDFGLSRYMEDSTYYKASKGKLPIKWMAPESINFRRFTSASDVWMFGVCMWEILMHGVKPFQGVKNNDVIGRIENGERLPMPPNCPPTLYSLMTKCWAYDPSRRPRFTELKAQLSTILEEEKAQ
T3 sequence (P12931 with tags, fused parts or gaps): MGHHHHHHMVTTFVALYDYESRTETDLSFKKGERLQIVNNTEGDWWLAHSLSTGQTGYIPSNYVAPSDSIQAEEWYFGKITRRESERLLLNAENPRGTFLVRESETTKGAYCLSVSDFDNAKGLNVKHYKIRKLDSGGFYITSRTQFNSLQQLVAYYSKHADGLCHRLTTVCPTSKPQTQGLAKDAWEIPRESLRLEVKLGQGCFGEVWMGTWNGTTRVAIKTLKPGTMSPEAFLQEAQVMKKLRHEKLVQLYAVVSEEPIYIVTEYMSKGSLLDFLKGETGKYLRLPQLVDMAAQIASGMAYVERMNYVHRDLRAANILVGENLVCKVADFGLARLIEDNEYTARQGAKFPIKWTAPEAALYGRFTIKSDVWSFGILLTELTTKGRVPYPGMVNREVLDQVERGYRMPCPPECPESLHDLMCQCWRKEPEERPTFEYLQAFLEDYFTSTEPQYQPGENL
T1 sequence (P04049 whole entry): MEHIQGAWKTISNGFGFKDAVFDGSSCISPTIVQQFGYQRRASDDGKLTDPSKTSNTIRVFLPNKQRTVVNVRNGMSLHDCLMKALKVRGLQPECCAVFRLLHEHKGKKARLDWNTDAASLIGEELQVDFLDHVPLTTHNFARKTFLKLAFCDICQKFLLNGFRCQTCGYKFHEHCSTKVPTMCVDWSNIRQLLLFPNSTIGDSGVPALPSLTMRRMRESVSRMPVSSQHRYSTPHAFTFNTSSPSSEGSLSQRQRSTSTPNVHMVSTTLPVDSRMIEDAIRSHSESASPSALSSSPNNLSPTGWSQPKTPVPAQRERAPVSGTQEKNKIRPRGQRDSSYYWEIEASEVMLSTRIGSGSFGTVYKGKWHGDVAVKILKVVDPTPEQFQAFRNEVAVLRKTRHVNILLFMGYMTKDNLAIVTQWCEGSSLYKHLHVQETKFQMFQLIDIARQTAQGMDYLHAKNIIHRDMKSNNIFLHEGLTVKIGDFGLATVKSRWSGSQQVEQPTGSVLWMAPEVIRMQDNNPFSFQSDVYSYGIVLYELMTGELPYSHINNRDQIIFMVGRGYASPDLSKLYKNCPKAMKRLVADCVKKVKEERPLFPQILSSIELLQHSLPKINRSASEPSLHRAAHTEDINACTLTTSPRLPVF
T6 sequence (P53779 whole entry): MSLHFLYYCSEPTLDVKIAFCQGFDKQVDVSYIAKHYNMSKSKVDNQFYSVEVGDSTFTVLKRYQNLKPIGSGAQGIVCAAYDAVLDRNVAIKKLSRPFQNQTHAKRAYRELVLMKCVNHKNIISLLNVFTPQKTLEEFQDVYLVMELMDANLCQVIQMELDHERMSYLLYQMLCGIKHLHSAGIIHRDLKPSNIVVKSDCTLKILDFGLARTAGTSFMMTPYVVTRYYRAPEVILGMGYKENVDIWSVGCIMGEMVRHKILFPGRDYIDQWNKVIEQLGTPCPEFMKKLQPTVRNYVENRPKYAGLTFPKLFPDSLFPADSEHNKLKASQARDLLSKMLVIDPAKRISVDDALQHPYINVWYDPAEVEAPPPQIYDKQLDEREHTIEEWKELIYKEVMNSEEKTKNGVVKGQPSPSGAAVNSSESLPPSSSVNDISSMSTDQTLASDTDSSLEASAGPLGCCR

CCCS(=O)(=O)Nc1ccc(F)c(C(=O)c2c[nH]c3ncccc23)c1F [Compound P-0007, Propane-1-sulfonic acid [2,4-difluoro-3-(1H-pyrrolo[2,3-b]pyridine-3-carbonyl)-phenyl]-amide]
≤ 10 µM: c-Raf-1 | Fak | Src | Stk6

Cc1c(O)cccc1C(=O)c1c[nH]c2ncc(Br)cc12 [Compound P-0055, (5-Bromo-1H-pyrrolo[2,3-b]pyridin-3-yl)-(3-hydroxy-2-methyl-phenyl)-methanone]
≤ 10 µM: c-Raf-1 | Fak | Flt1 | Src

O=C(c1cccc(O)c1)c1c[nH]c2ncc(-c3cccs3)cc12 [Compound P-0196]
≤ 10 µM: Fak | Flt1 | Jnk3 | Src

O=C(O)/C=C/c1cccc(-c2cnc3[nH]cc(C(=O)c4ccccc4F)c3c2)c1 [Compound P-0033]
≤ 10 µM: Flt1 | Jnk3 | Stk6

O=C(c1cccc(O)c1F)c1c[nH]c2ncc(Br)cc12 [Compound P-0067, (5-bromo-1H-pyrrolo[2,3-b]pyridin-3-yl)-(2-fluoro-3-hydroxy-phenyl)-methanone]
≤ 10 µM: Fak | Flt1 | Src

CS(=O)(=O)c1cccc(-c2cnc3[nH]cc(C(=O)c4c(F)ccc(F)c4F)c3c2)c1 [Compound P-0102, [5-(3-Methanesulfonyl-phenyl)-1H-pyrrolo[2,3-b]pyridin-3-yl]-(2,3,6-trifluoro-phenyl)-methanone]
≤ 10 µM: c-Raf-1 | Fak | Jnk3 | Src

Oc1cccc(Cc2c[nH]c3ncc(-c4ccsc4)cc23)c1 [Compound P-0056]
≤ 10 µM: Flt1 | Jnk3 | Stk6

CN(C)S(=O)(=O)Nc1ccc(F)c(Cc2c[nH]c3ncc(-c4cccnc4)cc23)c1F [Compound P-0166]
not listed: Stk6
≤ 10 µM: all other assays above

O=C(c1cccc(O)c1)c1c[nH]c2ncccc12 [Compound P-0011]
≤ 10 µM: Flt1 | Stk6

COc1ccc(F)c(C(=O)c2c[nH]c3ncc(-c4cccnc4)cc23)c1 [Compound P-0090]
≤ 10 µM: c-Raf-1 | Flt1 | Jnk3 | Src

Cc1ccccc1C(=O)c1c[nH]c2nccc(-c3ccc(C(N)=O)cc3)c12 [Compound P-0017]
≤ 10 µM: Flt1 | Src

CCCS(=O)(=O)Nc1ccc(F)c(C(=O)c2c[nH]c3ncc(OC)cc23)c1F [Compound P-0806, Propane-1-sulfonic acid [2,4-difluoro-3-(5-methoxy-1H-pyrrolo[2,3-b]pyridine-3-carbonyl)-phenyl]-amide]
≤ 10 µM: c-Raf-1 | Fak | Src | Stk6

O=C(O)/C=C/c1cccc(-c2cnc3[nH]cc(C(=O)c4cc(O)ccc4F)c3c2)c1 [Compound P-0010]
≤ 10 µM: c-Raf-1 | Jnk3 | Src | Stk6

O=C(c1cc(O)ccc1F)c1c[nH]c2ncc(-c3ccccc3)cc12 [Compound P-0045]
not listed: Flt1
≤ 10 µM: all other assays above

O=C(c1ccc(O)cc1Cl)c1c[nH]c2ncccc12 [Compound P-0021]
≤ 10 µM: c-Raf-1 | Flt1 | Src

COc1cc(OC)cc(C(=O)c2c[nH]c3ncc(-c4cccc(NS(C)(=O)=O)c4)cc23)c1 [Compound P-1426, N-{3-[3-(3,5-Dimethoxy-benzoyl)-1H-pyrrolo[2,3-b]pyridin-5-yl]-phenyl}-methanesulfonamide]
≤ 10 µM: Flt1 | Stk6

CCCS(=O)(=O)Nc1ccc(F)c(C(=O)c2c[nH]c3ncc(-c4cccnc4)cc23)c1F [Compound P-0088, Propane-1-sulfonic acid [2,4-difluoro-3-(5-pyridin-3-yl-1H-pyrrolo[2,3-b]pyridine-3-carbonyl)-phenyl]-amide]
≤ 10 µM: all assays above

O=C(c1cc(O)ccc1F)c1c[nH]c2ncccc12 [Compound P-0005]
≤ 10 µM: c-Raf-1 | Flt1 | Src

O=C(c1cc(O)ccc1F)c1c[nH]c2ncc(-c3cccs3)cc12 [Compound P-0032]
≤ 10 µM: all assays above

Cc1ccc(F)cc1C(=O)c1c[nH]c2ncc(-c3cccc(N)c3)cc12 [Compound P-0040]
≤ 10 µM: Jnk3 | Src | Stk6

Cc1ccc(S(=O)(=O)NCc2c[nH]c3nccc(-c4cccc(C#N)c4)c23)cc1 [Compound P-0072]
≤ 10 µM: Flt1 | Src

O=C(c1ccccc1F)c1c[nH]c2ncc(-c3ccsc3)cc12 [Compound P-0134]
≤ 10 µM: Flt1 | Jnk3 | Src

Nc1ccnc2[nH]cc(C(=O)c3ccccc3)c12 [Compound P-0029]
≤ 10 µM: Stk6

O=C(c1cccc(O)c1)c1c[nH]c2nccc(Cl)c12 [Compound P-0012]
≤ 10 µM: Flt1

CCCCNC(=O)Nc1ccc(F)c(C(=O)c2c[nH]c3ncc(-c4cccnc4)cc23)c1F [Compound P-1318, 1-Butyl-3-[2,4-difluoro-3-(5-pyridin-3-yl-1H-pyrrolo[2,3-b]pyridine-3-carbonyl)-phenyl]-urea]
not listed: Stk6
≤ 10 µM: all other assays above

O=C(c1cccc(O)c1)c1c[nH]c2ncc(Nc3ccccc3)cc12 [Compound P-0025]
≤ 10 µM: c-Raf-1 | Fak | Jnk3 | Src

Oc1cc(O)cc(Cc2c[nH]c3ncc(-c4ccsc4)cc23)c1 [Compound P-0093]
≤ 10 µM: Jnk3 | Stk6

COc1cccc(C(=O)c2c[nH]c3ncc(-c4cccc(NC(C)=O)c4)cc23)c1F [Compound P-1336, N-{3-[3-(2-Fluoro-3-methoxy-benzoyl)-1H-pyrrolo[2,3-b]pyridin-5-yl]-phenyl}-acetamide]
≤ 10 µM: c-Raf-1 | Fak | Src | Stk6

O=C(c1cc(O)ccc1F)c1c[nH]c2ncc(Br)cc12 [Compound P-0068, (5-Bromo-1H-pyrrolo[2,3-b]pyridin-3-yl)-(2-fluoro-5-hydroxy-phenyl)-methanone]
≤ 10 µM: Flt1 | Src

O=C(c1cccc(O)c1F)c1c[nH]c2ncc(-c3ccccc3)cc12 [Compound P-0036, (2-fluoro-3-hydroxy-phenyl)-(5-phenyl-1H-pyrrolo[2,3-b]pyridin-3-yl)-methanone]
not listed: Stk6
≤ 10 µM: all other assays above

CCCS(=O)(=O)Nc1ccc(F)c(C(=O)c2c[nH]c3ncc(-c4ccccc4)cc23)c1F [Compound P-0636, Propane-1-sulfonic acid [2,4-difluoro-3-(5-phenyl-1H-pyrrolo[2,3-b]pyridine-3-carbonyl)-phenyl]-amide]
≤ 10 µM: c-Raf-1 | Flt1 | Jnk3
